Measurements as given in patent publication US10675321B2, “Botanical extracts and compounds from Castanea plants and methods of use” (priority 2015, dated 2020).
≈ marks a conversion by molar mass, not a printed value.

Columns and labels:
Assay type in all cases: cell-based
[1] = system: Staphylococcus aureus AH430; test: MIC by microtiter broth dilution, strain AH430; conditions: 18 hrs static; for MIC50: at least 50% inhibition of growth by OD; for MIC90: at least 90% inhibition of growth by OD
[2] = system: Staphylococcus aureus AH1872; test: microbe, parasite or virus in culture; conditions: AH1872, 18 h
[3] = system: Propionibacterium acnes ATCC6919; test: Growth inhibition (MIC) of Propionibacterium acnes ATCC6919; conditions: Cutibacterium acnes
[4] = system: Propionibacterium acnes HL005PA2; test: Growth inhibition (MIC) of Propionibacterium acnes HL005PA2; conditions: Cutibacterium acnes, P. acnes HL005PA2
[5] = system: Staphylococcus aureus UAMS-1; test: MIC by microtiter broth dilution, strain UAMS-1; conditions: 18 hrs static
[6] = system: Staphylococcus aureus AH1747; test: MIC by microtiter broth dilution, strain AH1747; conditions: 18 hrs static

| Compound | MIC50 [1] | MIC90 [1] | MIC50 [2] | MIC90 [2] | MIC50 [3] | MIC90 [3] | MIC50 ([4]; 50% inhibition of the growth control) | MIC90 ([4]; 90% inhibition) | MIC50 ([5]; UAMS1, 50% inhibition of growth) | MIC90 ([5]; UAMS1, 90% inhibition of growth) | MIC50 ([6]; 50% inhibition of growth) | MIC90 ([6]; 90% inhibition of growth) |
| --- | --- | --- | --- | --- | --- | --- | --- | --- | --- | --- | --- | --- |
| CC1(C)S[C@@H]2[C@H](NC(=O)[C@H](N)c3ccccc3)C(=O)N2[C@H]1C(=O)O [Amp, Ampicillin] | 0.0625 µg/mL (≈ 0.179 µM) | 0.125 µg/mL (≈ 0.358 µM) | 4 µg/mL (≈ 11.4 µM) | 8 µg/mL (≈ 22.9 µM) | – | – | – | – | – | – | – | – |
| CCC[C@@H]1C[C@@H](C(=O)N[C@@H]([C@H]2O[C@H](SC)[C@H](O)[C@@H](O)[C@H]2O)[C@H](C)Cl)N(C)C1 [Clin, clindamycin] | – | – | – | – | 0.125 µg/mL (≈ 0.294 µM) | 0.125 µg/mL (≈ 0.294 µM) | 0.0625 µg/mL (≈ 0.147 µM) | 0.25 µg/mL (≈ 0.588 µM) | – | – | – | – |
| NC[C@H]1O[C@H](O[C@H]2[C@H](O)[C@@H](O[C@H]3O[C@H](CO)[C@@H](O)[C@H](N)[C@H]3O)[C@H](N)C[C@@H]2N)[C@H](O)[C@@H](O)[C@@H]1O [Kan, Kanamycin] | 2 µg/mL (≈ 4.13 µM) | 4 µg/mL (≈ 8.26 µM) | 1 µg/mL (≈ 2.06 µM) | 4 µg/mL (≈ 8.26 µM) | – | – | – | – | 2 µg/mL (≈ 4.13 µM) | 4 µg/mL (≈ 8.26 µM) | 1 µg/mL (≈ 2.06 µM) | 2 µg/mL (≈ 4.13 µM) |
